{"source": "patent EP1060742A1", "about": "“INTERSTITIAL ADENOSINE LEVEL-ELEVATING AGENTS” (priority 1998, dated 1999)", "key": {"[1]": {"tested_on": "myocardial adenosine level", "assay": "Effects on myocardial adenosine level in extirpated, Langendorff-perfused rat hearts (HPLC)", "settings": "10^-5 M, 15-minute perfusion, compared to vehicle control group (0.04% DMSO)", "description": "Male Sprange-Dawley rats aged 7 to 8 weeks were used. Hearts were extirpated under anesthesia by pentobarbital (50mg/kg, intra-abdominally injected) and were suspended in a Langendorff's apparatus.\nThe hearts were then frozen with liquid nitrogen. 10 equivalents of 0.6N perchloric acid were added to the frozen tissue and the tissue was homogenized and neutralized by 1N KOH and was then centrifuged. After centrifugation, the level of adenosine in the supernatant was measured by HPLC.\nPropranol was used as a control compound for the test and 0.04% DMSO solution was used as a vehicle control.\n(§1) Measurements were expressed in mean ± S.E., and tests for significant differences between the respective groups were performed using Dunnett's multiple comparison test."}, "[2]": {"tested_on": "cardiomyopathic Syrian hamsters (Bio 14.6 strain)", "assay": "Heart failure and myocardiopathy test in cardiomyopathic hamsters, oral dosing for 87 days", "type": "in vivo, hamster", "settings": "for AST (GOT) level / LDH level: day 30, 60mg/kg/day", "description": "(§2) Male aged-matched normal healthy golden hamsters (F1B strain) were used as control animals. These hamsters were purchased from Biobreeders Inc. Throughout the test period, the animals were housed in stainless steel cage in a temperature (23 ± 1C° )controlled room where a daily light-dark cycle was maintained artificially at 12 hours intervals. The animals were fed with commercially available pellet (CE-2, CLEA Japan, Inc.) and provided adde libitum with feed pellets and water. Incidentally, after they were purchased, the animals were acclimated to the above environment at least one week before subjected to experiments.\nThe test compound was suspended in a 0.5% sodium carboxymethyl cellulose (CMC-Na) solution. This dosing solution was orally administered for 87 days at dosages of 30mg/kg/day and 60mg/kg/day and a dose volume of 20ml/kg.\nCaptopril was used as a control compound. The compound was similarly suspended in a 0.5% CMC-Na solution and was orally administered for 87 days at a dosage of 60mg/kg/day and a dose volume of 20ml/kg.\nA group of animals administered with a 0.5% CMC-Na solution served as a vehicle control group. The solution was administered once daily from Monday through Friday but not on Saturdays and Sundays.\n(§3) Body weight was recorded on every Monday and Thursday after the administration of the test compound. […]\nBlood samples were collected before administration of the test compound, and 45 and 88 days after administration. The blood samples were collected from venous plexus of eyegrounds under anesthesia by ether. Blood plasma was separated from the samples and plasma norepinephrine (NE) levels were measured using a catecholamine assay system.\nMyocardial tissue preparations were prepared 88 days after the administration was started. The animals were sacrificed by exsanguination under anesthesia by ether. Chests were opened and hearts extirpated. Weight of the hearts was measured and the hearts were fixed in a 10% buffered neutral formaldehyde solution. Bases of the hearts were sliced to a 3mm thickness and formed into paraffin slices with respect to the side of the base using ordinary methods. The slices were stained with kossa, hematoxylin/eosin (H&E) and H&E/aniline blue stains. The preparations of the hearts so prepared were measured in area for regions of cardiac fibrosis, mineral deposition, myocardial necrosis, and macrophage infiltration, using an image analyzing system (Mac SCOPE Ver.2.1, Mitsuya Shoji).\nas §1"}, "[3]": {"assay": "Toxicity test, oral administration to fasted mice, observed for two weeks, LD50 by the Richfield-Wilcockson method", "type": "in vivo", "settings": "mouse, in vivo, mice, Richfield-Wilcockson method", "description": "(§4) LD50 was determined using the Richfield-Wilcockson method."}, "mice": {"tested_on": "mice", "assay": "Toxicity test, oral administration to fasted mice, observed for two weeks, LD50 by the Richfield-Wilcockson method", "type": "in vivo", "settings": "0.025N hydrochloric acid-saline solution, after 16-hour fasting, observed for two weeks", "description": "as §4"}, "male ICR mice": {"tested_on": "male ICR mice", "assay": "Toxicity test, subcutaneous administration to mice, observed for one week", "type": "in vivo"}, "[4]": {"tested_on": "cardiomyopathic Syrian hamsters (Bio 14.6 strain)", "assay": "Heart failure and myocardiopathy test in cardiomyopathic hamsters, oral dosing for 87 days", "type": "in vivo, hamster", "settings": "Bio 14.6 hamsters, 30, 60 and 88 days, all tests other than AST (GOT) and LDH on day 30 at 60mg/kg/day"}, "[5]": {"tested_on": "normal healthy golden hamsters (F1B strain)", "settings": "hamster, in vivo", "description": "as §2, with “Male cardiomyopathic Syrian hamsters (Bio 14.6 strain) aged 7 weeks were used. Male” for “Male”, “Incidentally, after they were purchased, the animals were acclimated to the above environment at least one week before subjected to experiments.” left out\nas §3\nBlood samples were collected before administration of the test compound, and 45 and 88 days after administration. […] Blood plasma was separated from the samples and plasma norepinephrine (NE) levels were measured using a catecholamine assay system.\nMyocardial tissue preparations were prepared 88 days after the administration was started. […] Weight of the hearts was measured and the hearts were fixed in a 10% buffered neutral formaldehyde solution. […] The preparations of the hearts so prepared were measured in area for regions of cardiac fibrosis, mineral deposition, myocardial necrosis, and macrophage infiltration, using an image analyzing system (Mac SCOPE Ver.2.1, Mitsuya Shoji). […]"}, "[6]": {"settings": "Bio 14.6 hamsters, 88 days after administration, 60mg/kg/day, compared to vehicle control group"}, "[7]": {"settings": "Bio 14.6 hamsters, day 88, 60mg/kg/day oral"}, "[8]": {"settings": "Bio 14.6 hamsters, day 88, 60mg/kg/day, image analysis"}, "[9]": {"settings": "Bio 14.6 hamsters, day 88, 30mg/kg/day, image analysis"}}}
{"smiles": "CC(C)NCC(O)COc1cccc2ccccc12", "note": "(centres unmarked) [propranol, reference compound]", "values": [{"measurement": "myocardial adenosine level", "setting": "[1]", "result": "no significant difference"}]}
{"smiles": "C[C@H](CS)C(=O)N1CCC[C@H]1C(=O)O", "note": "[captopril, reference compound]", "values": [{"measurement": "plasma NE level", "setting": "[2]; [6]", "result": "The same results were obtained"}, {"measurement": "AST (GOT) level", "setting": "[2]; Bio 14.6 hamsters", "result": "tendency of decrease"}, {"measurement": "LDH level", "setting": "[2]; Bio 14.6 hamsters", "result": "tendency of decrease"}, {"measurement": "relative heart weight", "setting": "[2]; [7]", "result": "The same results were obtained"}, {"measurement": "area of cardiac lesions", "setting": "[2]; [8]", "result": "significant decrease in area"}, {"measurement": "area of regions of fibrosis", "setting": "[2]; [8]", "result": "significant decrease in area"}, {"measurement": "area of regions of macrophage infiltration", "setting": "[2]; [8]", "result": "significant decrease in area"}, {"measurement": "area of regions of myocardial necrosis", "setting": "[2]; [8]", "result": "significant decrease in area"}]}
{"smiles": "COC(=O)C12C(O)C(C(=O)Cc3ccccn3)=NN1C(c1ccccc1)C=CC2c1ccccc1", "note": "(centres unmarked) [compound No.1, 2,5-diphenyl-7-hydroxy-6-methoxycarbonyl-8-(2-pyridyl)acetyl-1,9-diazabicyclo[4.3.0]-nona-3,8-dien]", "values": [{"measurement": "LD50 at 336 h", "setting": "[3]", "result": "> 100", "unit": "mg/kg"}, {"measurement": "clinical observations", "setting": "mice", "result": "no clinical observations"}, {"measurement": "mortality", "setting": "mice", "result": "no mortality"}, {"measurement": "clinical observations related to treatment", "setting": "male ICR mice; mouse, in vivo, sc", "result": "no clinical observations"}, {"measurement": "mortality", "setting": "male ICR mice; subcutaneous, 10ml/kg of a 10% aqueous polyethylene glycol 400 solution, observed for one week", "result": "no mortality"}, {"measurement": "clinical chemistry tests (all the other tests)", "setting": "[4]", "result": "no effect"}, {"measurement": "clinical chemistry tests", "setting": "[5]", "result": "no effect"}, {"measurement": "plasma NE level", "setting": "[2]; 45 days after administration, each dosage, compared to vehicle control groups, strain not specified in the sentence (Fig.4)", "result": "did not have significant effects"}, {"measurement": "plasma NE level", "setting": "[2]; [6]", "result": "significantly lower level"}, {"measurement": "plasma NE level", "setting": "[2]; Bio 14.6 hamsters, 88 days after administration, across 30 and 60mg/kg/day", "result": "decrease in a dose-dependent manner"}, {"measurement": "AST (GOT) level", "setting": "[2]; Bio 14.6 hamsters", "result": "tendency of decrease"}, {"measurement": "LDH level", "setting": "[2]; Bio 14.6 hamsters", "result": "tendency of decrease"}, {"measurement": "relative heart weight", "setting": "[2]; Bio 14.6 hamsters, day 88, 30mg/kg/day oral", "result": "significant suppression of increase"}, {"measurement": "area of cardiac legions (sum of the areas of necrosis, macrophage infiltration and fibrosis)", "setting": "[2]; [9]", "result": "significant decrease in area"}, {"measurement": "area of regions of fibrosis", "setting": "[2]; [9]", "result": "significant decrease in area"}, {"measurement": "area of regions of macrophage infiltration", "setting": "[2]; [9]", "result": "significant decrease in area"}, {"measurement": "area of regions of myocardial necrosis", "setting": "[2]; [9]", "result": "significant decrease in area"}, {"measurement": "relative heart weight", "setting": "[2]; [7]", "result": "significant suppression of increase"}, {"measurement": "area of regions of macrophage infiltration", "setting": "[2]; [8]", "result": "significant decrease in area"}, {"measurement": "area of regions of myocardial necrosis", "setting": "[2]; [8]", "result": "significant decrease in area"}, {"measurement": "relative liver weight", "setting": "[2]; Bio 14.6 hamsters, day 88, oral", "result": "did not have effects"}, {"measurement": "changes in body weight", "setting": "[2]; Bio 14.6 hamsters, each dosage (30mg/kg/day and 60mg/kg/day), oral", "result": "did not affect"}, {"measurement": "myocardial adenosine level", "setting": "[1]", "result": "increased three-fold"}]}
